# According to PMC11790914, “Chemogenomics for steroid hormone receptors (NR3)” (Communications Chemistry, 2025):
# Where “and” joins values, the source holds several entries; their conditions need not be identical. Equal entries are not always repeated.
# Assays:
# [1] = test system: HEK293T cells; assay: Cytotoxicity: necrosis induction (red fluorescent dye for permeable plasma membranes); assay type: cell-based; settings: 1 µM, 24 h, necrotic cell count normalized to 0.1% DMSO, single replicates;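 further: compounds applied in DMEM high glucose with 0.1% FCS and 0.1% DMSO, necrotic HEK293T cells counted by red staining of cells whose plasma membranes had become permeable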
# Procedure: Cells were incubated with the test compounds at the indicated concentrations solubilized with 0.1% DMSO for 24 h. […] Necrotic cells were detected with a red fluorescent dye that labels cells with permeable plasma membranes after 24 h treatment and the necrotic cell count was normalized to 0.1% DMSO treated cells (n = 4). e NR family selectivity profiling of NR3 CG compound candidates in uniform Gal4-hybrid reporter gene assays for selected NR representing the NR1, NR2, NR4 and NR5 families.
# HEK293T cells (German Collection of Microorganisms and Cell Culture GmbH, DSMZ; #ACC305) were cultured in DMEM high glucose, supplemented with 10% fetal calf serum (FCS), sodium pyruvate (1 mM), penicillin (100 µ/mL) and streptomycin (100 µg/mL) at 37 °C and 5% (v/v) CO2, and seeded in pre-coated (10 µg/mL collagen G solution (Merck KgaA; #L7213) for 30 min at 37 °C) 96-well plates (2 × 10^5 cells per well). After 24 h, the cells were treated with the respective NR3 CG compound candidate at the recommended concentration, bexarotene (100 µM) or doxorubicin (30 µM) as positive controls in DMEM high glucose supplemented with 0.1% FCS, penicillin (100 µ/mL), streptomycin (100 µg/mL) and 0.1% DMSO, or 0.1% DMSO alone as an untreated control. Each sample was prepared in at least four biologically independent replicates. […] Before drug administration, after the first medium exchange, 24 h after drug administration, and after fluorescence imaging cell confluence was assessed using the Tecan Spark Cyto, to account for changes in cell confluence due to drug administration and cell handling. Compound effects on cell confluence, apoptosis, metabolic activity and necrosis were normalized to the vehicle control of each biological replicate individually.
# [2] = test system: Gal4-VP16; assay type: cell-based; settings: 1 µM; vs. DMSO ctrl; single replicates n=1-3
# Procedure: Five hours after transfection, the cells were incubated with the NR3 CG compound candidates at the recommended concentrations by changing the medium to Opti-MEM supplemented with penicillin (100 µ/mL) and streptomycin (100 µg/mL) additionally containing 0.1% DMSO and the respective test compound or 0.1% DMSO alone as untreated control. Firefly (reporter) and renilla (control) luminescence were measured after 14–16 h incubation using the Dual-Glo® Luciferase Assay System (Promega, Fitchburg, Wisconsin, USA; #E2980) according to manufacturer’s protocol on a Tecan Spark® 10M multimode microplate reader (Tecan Group AG, Männedorf, Switzerland). To obtain relative light units (RLU) firefly luminescence was divided by renilla luminescence and multiplied by 1000. Fold activation was obtained by dividing the mean RLU of a test sample by the mean RLU of the DMSO (0.1%) control. Experiments were performed in singlets in at least three biologically independent repeats.
# are labeled according to their mode of action (yellow - agonist, grey - antagonist, grey with label D - degrader) and grouped by their
# NR3 subfamily main targets.
# reporter activity at the indicated concentrations expressed as mean fold reporter gene activity (n=3).
# [3] = target: T1, ABL1 (Homo sapiens, UniProt P00519); assay: Liability panel screening by DSF: ABL1; assay type: binding; settings: DSF, 20 µM, n=2; read-out: Mean ΔTM ABL1
# T1 construct: made in house
# T1 sequence (P00519 whole entry, species assumed): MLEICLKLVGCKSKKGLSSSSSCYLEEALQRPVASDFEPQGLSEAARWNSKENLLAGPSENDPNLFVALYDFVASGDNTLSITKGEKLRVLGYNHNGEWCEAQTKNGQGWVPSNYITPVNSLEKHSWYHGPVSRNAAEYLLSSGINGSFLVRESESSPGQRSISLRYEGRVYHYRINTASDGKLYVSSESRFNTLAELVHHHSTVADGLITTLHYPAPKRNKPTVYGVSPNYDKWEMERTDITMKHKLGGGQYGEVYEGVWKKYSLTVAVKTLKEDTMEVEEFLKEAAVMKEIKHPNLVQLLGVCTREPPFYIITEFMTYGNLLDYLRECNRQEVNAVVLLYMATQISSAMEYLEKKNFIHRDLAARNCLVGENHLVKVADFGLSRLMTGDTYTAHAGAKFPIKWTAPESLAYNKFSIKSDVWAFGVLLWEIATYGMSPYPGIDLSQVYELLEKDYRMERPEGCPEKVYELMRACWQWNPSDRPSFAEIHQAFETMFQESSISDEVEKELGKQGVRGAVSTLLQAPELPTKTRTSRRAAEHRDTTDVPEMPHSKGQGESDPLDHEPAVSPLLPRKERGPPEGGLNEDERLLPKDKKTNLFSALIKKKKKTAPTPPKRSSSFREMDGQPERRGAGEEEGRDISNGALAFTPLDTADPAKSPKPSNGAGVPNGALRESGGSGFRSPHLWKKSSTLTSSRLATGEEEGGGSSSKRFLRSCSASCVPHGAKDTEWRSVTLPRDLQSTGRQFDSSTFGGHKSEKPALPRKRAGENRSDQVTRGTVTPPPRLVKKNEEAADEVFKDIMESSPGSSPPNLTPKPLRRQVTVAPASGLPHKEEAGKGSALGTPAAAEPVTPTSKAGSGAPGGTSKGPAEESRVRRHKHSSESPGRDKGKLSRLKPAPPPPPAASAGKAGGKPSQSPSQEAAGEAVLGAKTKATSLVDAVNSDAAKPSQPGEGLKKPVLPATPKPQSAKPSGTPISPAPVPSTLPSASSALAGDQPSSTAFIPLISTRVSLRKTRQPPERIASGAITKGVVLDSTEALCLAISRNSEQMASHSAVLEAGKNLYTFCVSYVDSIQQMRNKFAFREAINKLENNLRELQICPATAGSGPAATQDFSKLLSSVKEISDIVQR
# Procedure: (§1) Reference ligands are listed in the methods section.
# (§2) In-house produced recombinantly expressed proteins[62] of the liability panel targets were diluted in a buffer containing 10 mM HEPES (pH 7.5) and 500 mM NaCl to a concentration of 2 µM. SYPRO Orange (Invitrogen, Carlsbad, California, USA; #S6650) as a fluorescence probe was added at a 1:1000 dilution to the proteins. […] Temperature-dependent unfolding profiles were measured on a QuantStudio™ 5 real-time PCR machine (Thermo Fisher Scientific, Waltham, Massachusetts, USA; #A28140). […] The temperature was increased 3 °C per minute to a maximum temperature of 85 °C. Experiments were run as technical duplicates. […] Data were analyzed with the internal Thermal Shift Software (version 1.4, Thermo Fisher Scientific) using the Boltzmann equitation to determine the inflection point of the transition curve. Differences in melting temperature are given as ∆Tm in K. […]
# (§3) scanning fluorimetry (DSF).
# (§4) a concentration of 20 µM.
# [4] = target: T2, AURKA (Homo sapiens, UniProt O14965); assay: Liability panel screening by DSF: AURKA; assay type: binding; settings: DSF, 20 µM, n=2; read-out: Mean ΔTM AURKA
# T2 construct: made in house
# T2 sequence (O14965 1-403): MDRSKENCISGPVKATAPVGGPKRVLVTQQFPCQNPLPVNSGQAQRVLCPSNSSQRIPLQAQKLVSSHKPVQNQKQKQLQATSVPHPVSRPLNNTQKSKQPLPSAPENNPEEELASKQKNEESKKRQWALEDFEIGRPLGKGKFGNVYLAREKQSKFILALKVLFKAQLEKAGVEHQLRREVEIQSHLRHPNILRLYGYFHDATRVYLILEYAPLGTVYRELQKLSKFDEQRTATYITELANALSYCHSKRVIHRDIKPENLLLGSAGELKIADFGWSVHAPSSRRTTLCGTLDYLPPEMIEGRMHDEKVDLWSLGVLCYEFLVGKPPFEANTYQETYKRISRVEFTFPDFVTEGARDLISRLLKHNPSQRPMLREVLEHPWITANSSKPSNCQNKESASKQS
# Procedure: as §1, §2, §3, §4
# [5] = target: T3, CDK2 (Homo sapiens, UniProt P24941); assay: Liability panel screening by DSF: CDK2; assay type: binding; settings: DSF, 20 µM, n=2; read-out: Mean ΔTM CDK2
# T3 construct: made in house
# Procedure: as §1, §2, §3, §4
# [6] = target: T4, FGFR3 (Homo sapiens, UniProt P22607); assay: Liability panel screening by DSF: FGFR3; assay type: binding; settings: DSF, 20 µM, n=2; read-out: Mean ΔTM FGFR3
# T4 construct: made in house
# T4 sequence (P22607 23-806, species assumed): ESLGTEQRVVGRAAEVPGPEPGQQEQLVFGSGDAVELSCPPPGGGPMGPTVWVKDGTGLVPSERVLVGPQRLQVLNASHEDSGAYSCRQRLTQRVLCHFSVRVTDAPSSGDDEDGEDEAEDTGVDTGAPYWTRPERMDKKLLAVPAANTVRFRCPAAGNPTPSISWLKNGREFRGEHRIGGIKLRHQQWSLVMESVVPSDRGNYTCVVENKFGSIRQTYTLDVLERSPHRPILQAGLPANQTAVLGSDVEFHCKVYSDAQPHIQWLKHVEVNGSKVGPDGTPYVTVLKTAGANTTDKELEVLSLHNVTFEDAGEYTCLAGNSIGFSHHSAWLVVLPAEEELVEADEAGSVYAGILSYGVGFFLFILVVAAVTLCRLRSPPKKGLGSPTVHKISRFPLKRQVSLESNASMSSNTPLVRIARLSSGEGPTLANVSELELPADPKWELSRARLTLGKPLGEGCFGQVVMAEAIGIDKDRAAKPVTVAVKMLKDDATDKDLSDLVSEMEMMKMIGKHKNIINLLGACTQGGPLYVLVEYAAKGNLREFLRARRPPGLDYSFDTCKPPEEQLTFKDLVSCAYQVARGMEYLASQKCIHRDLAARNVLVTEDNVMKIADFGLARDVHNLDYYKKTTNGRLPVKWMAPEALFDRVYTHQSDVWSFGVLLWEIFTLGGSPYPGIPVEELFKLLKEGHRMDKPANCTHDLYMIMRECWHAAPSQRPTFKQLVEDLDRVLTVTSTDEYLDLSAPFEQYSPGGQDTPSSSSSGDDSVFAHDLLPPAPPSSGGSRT
# Procedure: as §1, §2, §3, §4
# [7] = target: T5, GSK3B (Homo sapiens, UniProt P49841); assay: Liability panel screening by DSF: GSK3B; assay type: binding; settings: DSF, 20 µM, n=2; read-out: Mean ΔTM GSK3B
# T5 construct: made in house
# T5 sequence (P49841 whole entry, species assumed): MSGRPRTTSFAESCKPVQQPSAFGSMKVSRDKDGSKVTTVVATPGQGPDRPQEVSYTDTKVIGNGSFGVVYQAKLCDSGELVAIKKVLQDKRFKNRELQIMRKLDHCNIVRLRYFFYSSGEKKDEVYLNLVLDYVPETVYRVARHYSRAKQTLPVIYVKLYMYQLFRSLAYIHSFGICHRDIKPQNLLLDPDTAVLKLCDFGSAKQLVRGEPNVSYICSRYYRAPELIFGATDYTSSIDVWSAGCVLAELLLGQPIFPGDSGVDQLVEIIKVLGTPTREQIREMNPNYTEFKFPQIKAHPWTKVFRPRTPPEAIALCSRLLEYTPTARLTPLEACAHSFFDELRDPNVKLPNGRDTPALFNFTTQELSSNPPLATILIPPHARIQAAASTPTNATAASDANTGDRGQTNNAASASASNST
# [8] = target: T6, BRD4 (Homo sapiens, UniProt O60885); assay: Liability panel screening by DSF: BRD4; assay type: binding; settings: DSF, 20 µM, n=2; read-out: Mean ΔTM BRD4
# T6 construct: This panel comprised ten highly ligandable kinases and bromodomains; made in house
# Procedure: as §1, §2, §3, §4
# [9] = target: T7, BRPF1 (Homo sapiens, UniProt P55201); assay: Liability panel screening by DSF: BRPF1; assay type: binding; settings: DSF, 20 µM, n=2; read-out: Mean ΔTM BRPF1
# T7 construct: This panel comprised ten highly ligandable kinases and bromodomains; made in house
# T7 sequence (P55201 628-732 limits assumed): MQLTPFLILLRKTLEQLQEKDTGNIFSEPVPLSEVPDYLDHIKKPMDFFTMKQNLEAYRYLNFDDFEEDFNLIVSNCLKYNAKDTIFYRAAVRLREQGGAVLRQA
# Procedure: as §1, §2, §3, §4
# [10] = target: T8, CSNK1D (Homo sapiens, UniProt P48730); assay: Liability panel screening by DSF: CSNK1D; assay type: binding; settings: DSF, 20 µM, n=2; read-out: Mean ΔTM CSNK1D
# T8 construct: made in house
# T8 sequence (P48730 whole entry, species assumed): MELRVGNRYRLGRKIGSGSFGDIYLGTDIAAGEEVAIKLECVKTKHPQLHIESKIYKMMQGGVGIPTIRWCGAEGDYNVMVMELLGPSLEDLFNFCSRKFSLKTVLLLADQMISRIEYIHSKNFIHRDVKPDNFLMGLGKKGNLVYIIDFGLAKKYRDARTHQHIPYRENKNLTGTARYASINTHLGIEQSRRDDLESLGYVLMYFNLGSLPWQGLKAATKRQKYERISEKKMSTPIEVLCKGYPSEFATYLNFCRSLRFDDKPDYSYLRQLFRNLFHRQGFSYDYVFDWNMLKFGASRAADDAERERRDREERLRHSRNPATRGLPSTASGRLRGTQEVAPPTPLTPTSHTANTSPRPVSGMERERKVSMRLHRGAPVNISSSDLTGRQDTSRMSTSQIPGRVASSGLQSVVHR
# Procedure: as §1, §2, §3, §4
# [11] = target: T9, MAPK1 (Homo sapiens, UniProt P28482); assay: Liability panel screening by DSF: MAPK1; assay type: binding; settings: DSF, 20 µM, n=2; read-out: Mean ΔTM MAPK1
# T9 construct: made in house
# T9 sequence (P28482 whole entry, species assumed): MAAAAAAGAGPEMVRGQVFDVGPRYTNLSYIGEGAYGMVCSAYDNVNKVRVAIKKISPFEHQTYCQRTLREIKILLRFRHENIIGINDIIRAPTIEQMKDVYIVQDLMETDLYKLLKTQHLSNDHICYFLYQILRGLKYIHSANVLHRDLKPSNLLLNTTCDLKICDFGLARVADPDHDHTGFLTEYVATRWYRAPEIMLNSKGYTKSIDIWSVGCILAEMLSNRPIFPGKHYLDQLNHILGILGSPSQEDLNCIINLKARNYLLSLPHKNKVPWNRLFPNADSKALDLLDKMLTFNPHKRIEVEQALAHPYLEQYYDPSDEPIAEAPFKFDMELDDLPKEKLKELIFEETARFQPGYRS
# Procedure: as §1, §2, §3, §4
# [12] = target: T10, TRIM24 (Homo sapiens, UniProt O15164); assay: Liability panel screening by DSF: TRIM24; assay type: binding; settings: DSF, 20 µM, n=2; read-out: Mean ΔTM TRIM24
# T10 construct: This panel comprised ten highly ligandable kinases and bromodomains; made in house
# T10 sequence (O15164 899-1004 limits assumed): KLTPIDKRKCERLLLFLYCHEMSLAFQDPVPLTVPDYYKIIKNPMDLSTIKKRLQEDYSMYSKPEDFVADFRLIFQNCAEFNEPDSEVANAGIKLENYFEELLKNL
# Procedure: as §1, §2, §3, §4
# [13] = test system: NF-κB activity in HEK293 NF-κB reporter cells; assay: NF-kB activity assay (GFP reporter, ionomycin/PMA); assay type: cell-based; settings: n=3
# How it was run: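 Reporter readout: GFP-expressing cells normalized to confluence, imaged every 90 min across 24 h after ionomycin (100 ng/mL)/PMA (10 ng/mL) stimulation of HEK293 cells pre-treated 4 h with compound (0.1% DMSO); triplicate independent experiments.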
# [14] = test system: ATF6 activity in Hela ATF6 reporter cells; assay: Endoplasmic reticulum stress assay (ATF6 Renilla luciferase reporter, tunicamycin); assay type: cell-based; settings: Homo sapiens, HeLa, 1 µM, single replicates n=1 to n=5; read-out: ER stress [rel. ATF6 activity]
# How it was run: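 ER stress was induced by 100 ng/mL tunicamycin added 4 h after compound (0.1% DMSO) to HeLa ATF6 reporter cells. After 18 h more, Renilla luciferase signal was read and expressed relative to DMSO control, n=5 biological replicates.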
# [15] = test system: HEK293T cells; assay: Cytotoxicity: metabolic activity (WST-8 / CCK-8 assay); settings: 1 µM; HEK293T, 24 h; WST-8; normalized to 0.1% DMSO; single replicates
# [16] = test system: HEK293T cells; assay: Cytotoxicity: growth-rate (change in confluence over 24 h); settings: 1 µM, normalized to 0.1% DMSO control, single replicates (n=1...)
# Procedure: Cells were incubated with the test compounds at the indicated concentrations solubilized with 0.1% DMSO for 24 h. Growth-rate was determined based on the change in confluence over 24 h normalized to the change in confluence of cells treated with the 0.1% DMSO control (n = 10). Metabolic activity was determined with a water-soluble tetrazolium-8 (WST-8) assay (n = 8) after 24 h treatment. Apoptotic cells were detected with a fluorogenic DNA dye coupled to the caspase-3/7 recognition sequence (DEVD) after 24 h treatment and the apoptotic cell count was normalized to 0.1% DMSO treated cells (n = 6).
# HEK293T cells (German Collection of Microorganisms and Cell Culture GmbH, DSMZ; #ACC305) were cultured in DMEM high glucose, supplemented with 10% fetal calf serum (FCS), sodium pyruvate (1 mM), penicillin (100 µ/mL) and streptomycin (100 µg/mL) at 37 °C and 5% (v/v) CO2, and seeded in pre-coated (10 µg/mL collagen G solution (Merck KgaA; #L7213) for 30 min at 37 °C) 96-well plates (2 × 10^5 cells per well). After 24 h, the cells were treated with the respective NR3 CG compound candidate at the recommended concentration, bexarotene (100 µM) or doxorubicin (30 µM) as positive controls in DMEM high glucose supplemented with 0.1% FCS, penicillin (100 µ/mL), streptomycin (100 µg/mL) and 0.1% DMSO, or 0.1% DMSO alone as an untreated control. Each sample was prepared in at least four biologically independent replicates. […] Thereafter, the medium was aspirated and the cells were incubated for 3 h with 90 µL DMEM high glucose supplemented with 0.2% FCS, penicillin (100 µ/mL) and streptomycin (100 µg/mL) and additionally containing 10 µL Cell Counting Kit 8 solution (CCK-8; MedChemExpress, Monmouth Junction, New York, USA; #HY-K0301), and absorbance was measured at 1 h, 2 h and 3 h of incubation at 450 nm on a Tecan Spark Cyto to assess metabolic activity of the cells. Before drug administration, after the first medium exchange, 24 h after drug administration, and after fluorescence imaging cell confluence was assessed using the Tecan Spark Cyto, to account for changes in cell confluence due to drug administration and cell handling. Compound effects on cell confluence, apoptosis, metabolic activity and necrosis were normalized to the vehicle control of each biological replicate individually.
# [17] = test system: HEK293T cells; assay: Cytotoxicity: apoptosis induction (caspase-3/7 DEVD fluorogenic DNA dye); settings: 1 µM; HEK293T, 24 h; apoptotic cell count normalized to 0.1% DMSO; single replicates
compound,measurement,setting,value
COC(=O)[C@@H]1CC2=CC(=O)CC[C@]2(C)[C@@]23O[C@@H]2C[C@@]2(C)[C@@H](CC[C@@]24CCC(=O)O4)[C@H]13 [Eplerenone],Necrosis induction [NI],[1],1.05 and 1.24 and 1.00 and 0.99
same,VP16 control [fold reporter gene activity],[2],1.24 fold reporter gene activity and 0.82 fold reporter gene activity and 1.00 fold reporter gene activity
same,ΔTm at 20 µM,[3],0.55 °C
same,ΔTm at 20 µM,[4],-0.81 °C
same,ΔTm at 20 µM,[5],-0.21 °C
same,ΔTm at 20 µM,[6],1.06 °C
same,ΔTm at 20 µM,[7],-0.8 °C
same,ΔTm at 20 µM,[8],-1.74 °C
same,ΔTm at 20 µM,[9],-1.07 °C
same,ΔTm at 20 µM,[10],0.47 °C
same,ΔTm at 20 µM,[11],0.21 °C
same,ΔTm at 20 µM,[12],-0.62 °C
same,Mean NFκB response,"[13]; 1 µM, 1,5 h",2599.33 GFP+-cells/confluence ∙ 1000
same,Mean NFκB response,"[13]; 1 µM, 4,5 h",2970.00 GFP+-cells/confluence ∙ 1000
same,Mean NFκB response,"[13]; 1 µM, 7,5 h",5786.00 GFP+-cells/confluence ∙ 1000
same,Mean NFκB response,"[13]; 1 µM, 10,5 h",15820.00 GFP+-cells/confluence ∙ 1000
same,Mean NFκB response,"[13]; 1 µM, 13,5 h",23870.00 GFP+-cells/confluence ∙ 1000
same,Mean NFκB response,"[13]; 1 µM, 16,6 h",30236.67 GFP+-cells/confluence ∙ 1000
same,Mean NFκB response,"[13]; 1 µM, 19,5 h",34356.67 GFP+-cells/confluence ∙ 1000
same,Mean NFκB response,"[13]; 1 µM, 22,5 h",38213.33 GFP+-cells/confluence ∙ 1000
same,Mean NFκB response,"[13]; 1 µM, 3 h",2606.00 GFP+-cells/confluence ∙ 1000
same,Mean NFκB response,"[13]; 1 µM, 6 h",3625.00 GFP+-cells/confluence ∙ 1000
same,Mean NFκB response,"[13]; 1 µM, 9 h",10753.00 GFP+-cells/confluence ∙ 1000
same,Mean NFκB response,"[13]; 1 µM, 12 h",20210.00 GFP+-cells/confluence ∙ 1000
same,Mean NFκB response,"[13]; 1 µM, 15 h",27316.67 GFP+-cells/confluence ∙ 1000
same,Mean NFκB response,"[13]; 1 µM, 18 h",32426.67 GFP+-cells/confluence ∙ 1000
same,Mean NFκB response,"[13]; 1 µM, 21 h",36556.67 GFP+-cells/confluence ∙ 1000
same,Mean NFκB response,"[13]; 1 µM, 24 h",39176.67 GFP+-cells/confluence ∙ 1000
same,activity at 1 µM,[14],96%
same,Metabolic activity [MA],[15],1.06 and 1.03 and 0.91 and 0.99 (3×) and 0.98 and 1.09
same,Growth rate [GR],[16],0.85 and 4.28 and 0.92 and 1.11 and 0.73 and 0.84 and 0.96 and 4.53 and 0.57 and 31.96
same,Apoptosis induction [AI],[17],0.96 and 0.85 and 1.29 and 1.36 and 1.16 and 1.24
